Assay results as given in publication PMC13047053, “Crystal structure of human INPP5K with an allosteric inhibitor reveals the structural basis for species specific potency” (Scientific Reports, 2026).
“Also recorded” adds a separate entry of the source.

Biological target: T1, mouse INPP5K (Mus musculus, UniProt Q8C5L6)
T1 construct: mouse INPP5K (aa 1–468, UniProt ID: Q8C5L6); FLAG (N); made in house; host or cells: Expi293 cells (pcDNA3.4, transient)
T1 sequence (Q8C5L6 1-468): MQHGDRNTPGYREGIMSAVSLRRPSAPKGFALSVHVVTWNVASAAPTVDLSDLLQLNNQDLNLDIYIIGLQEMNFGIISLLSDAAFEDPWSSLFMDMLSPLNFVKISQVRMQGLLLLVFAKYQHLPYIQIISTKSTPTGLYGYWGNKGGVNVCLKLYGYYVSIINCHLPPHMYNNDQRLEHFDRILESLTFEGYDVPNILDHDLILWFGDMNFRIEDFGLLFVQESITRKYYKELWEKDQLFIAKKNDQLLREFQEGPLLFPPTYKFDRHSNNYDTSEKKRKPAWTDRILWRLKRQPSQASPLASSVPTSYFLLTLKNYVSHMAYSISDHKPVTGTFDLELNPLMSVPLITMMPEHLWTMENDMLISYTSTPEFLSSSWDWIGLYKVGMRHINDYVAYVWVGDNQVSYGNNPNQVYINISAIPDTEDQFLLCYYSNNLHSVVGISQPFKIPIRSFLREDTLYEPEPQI
Assay: Inorganic phosphate detection assay for phosphatase inhibition
Type: biochemical

CC(C)c1sc(NC(=O)c2ccccc2)c(C(=O)O)c1-c1ccccc1 [CPD-1]
IC50 (inorganic phosphate detection assay, 20 µM diC8-PI(3,4,5)P3, 20 min): > 100 µM
inhibition of mouse INPP5K (in words) (result in words): no inhibition; also recorded: inactive
